The source of these data is patent US8835429B2, “Pyrimidine compounds, their use as mTOR kinase and Pl3 kinase inhibitors, and their syntheses” (Wyeth LLC, priority 2009, dated 2014).

The target of assay [1] is PI3K-gamma (Homo sapiens, UniProt P48736). In words: PI3K-gamma fluorescence polarization assay. It counts as biochemical. The conditions noted are these: 20 μM PIP2, 25 μM ATP; read-out: PI3Kγ IC50. The protocol:
The reaction buffer was 20 mM HEPES, pH 7.5, 2 mM MgCl2, 0.05% CHAPS; and 0.01% βME (added fresh). The stop/detection buffer was 100 mM HEPES, pH 7.5, 4 mM EDTA, 0.05% CHAPS; ATP 20 mM in water; PIP2 (diC8, Echelon, Salt Lake City Utah cat #P-4508) 1 mM in water (MW=856.5). The GST-GRP was 1.75 mg/mL or 1.4 mg/mL in 10% glycerol. The red detector (TAMRA) was 2.5 μM. Nunc 384-well black polypropylene fluorescent plates were used for PI3K assays.
The assay is run by placing 5 μL of diluted enzyme per well, then 5 μL of diluted compound (or 9.5 μL enzyme then 0.5 μL compound in DMSO) is added and mixed. Then, 10 μL substrate is added to start the reaction. The samples are incubated 30-60 minutes, then the reaction is stopped by adding 20 μL stop/detector mix. PI3K is diluted with reaction buffer (e.g., 5 μL or 7.5 μL PI3K into 620 μL reaction buffer), and 5 μL of diluted enzyme is used per well. A 5 μL portion of reaction buffer or of drug diluted in buffer (e.g., 4 μL/100 so final DMSO is 1% in reaction) is added to each. Pipetting up and down mixes the samples. Alternatively, the enzyme can be diluted to 1215 μL. In this case 9.8 μL is added per well and 0.2 μL compound is added in DMSO.
To prepare 1 mL of substrate solution, 955 μL reaction buffer, 40 μL PIP2, and 2.5 μL ATP are mixed. 10 μL of substrate is added to each well to start the reaction. […] The stop/detector mix is prepared by mixing 4 μL red detector and 1.6 μL or 2.0 μL GST-GRP with 1 mL stop buffer, which results in 10 nM probe and 70 nM GST-GRP. 20 μL of the stop/detector mix is added to each well to stop the reaction. The plates are read after 30-90 minutes keeping the red probe solutions dark. For the zero time point, stop/detector mix is added to the enzyme just before adding substrate. For an extra control, stop/detector mix is added to buffer (no enzyme) and substrate or to just buffer (no substrate). […] The recommended reaction has 0.06 μL per 20 μL (0.015 μg/20 μL) or 0.01125 μg/15 μL or 0.75 μg/mL.
Plates are read on machines with filters for TAMRA. The units are mP with no enzyme controls reading app 190-220 mP units. Fully active enzyme reduces fluorescence polarization down to 70-100 mP after 30 minutes. An active compound raises the mP values halfway to control or to 120-150 mP units.
Background: Fluorescence polarisation rises when a labelled molecule tumbles more slowly, as on binding a larger partner.

Assay [2] has as its target mTOR (Homo sapiens, UniProt P42345). The assay can be described thus: mTOR enzyme assay (DELFIA, purified FLAG-TOR, His6-S6K substrate). In kind it is biochemical. The settings on record: 100 μM ATP, 2 hours. On the set-up: FLAG.
The target of assay [3] is PI3K-alpha (Homo sapiens, UniProt P42336). The assay can be described thus: PI3K-alpha fluorescence polarization assay. It counts as biochemical. The conditions noted are these: 20 μM PIP2, 25 μM ATP; read-out: PI3Kα IC50. The essentials:
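PIP2 (diC8) and ATP substrate with PI3K in 20 mM HEPES pH 7.5, 2 mM MgCl2, 0.05% CHAPS, 0.01% βME; 1% DMSO final; 30–60 min reaction. Stopped with EDTA plus GST-GRP (70 nM) and TAMRA probe (10 nM); FP (mP) read after 30–90 min, with no-enzyme controls.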

Assay [4] has as its system LNCap. In words: In vitro cell growth assay (MTS), LNCap. The settings on record: LNCaP, 72 h, human prostate line, three days after drug treatment. In kind it is cell-based.
The subject of assay [5] is MDA468. The assay can be described thus: In vitro cell growth assay (MTS), MDA468. It counts as cell-based. The conditions noted are these: 72 h, human breast line MDA468, three days after drug treatment, read-out: MDA IC50.

Molecules are shown by their SMILES.

Chain of PI3K-alpha (P42336 whole entry, species assumed): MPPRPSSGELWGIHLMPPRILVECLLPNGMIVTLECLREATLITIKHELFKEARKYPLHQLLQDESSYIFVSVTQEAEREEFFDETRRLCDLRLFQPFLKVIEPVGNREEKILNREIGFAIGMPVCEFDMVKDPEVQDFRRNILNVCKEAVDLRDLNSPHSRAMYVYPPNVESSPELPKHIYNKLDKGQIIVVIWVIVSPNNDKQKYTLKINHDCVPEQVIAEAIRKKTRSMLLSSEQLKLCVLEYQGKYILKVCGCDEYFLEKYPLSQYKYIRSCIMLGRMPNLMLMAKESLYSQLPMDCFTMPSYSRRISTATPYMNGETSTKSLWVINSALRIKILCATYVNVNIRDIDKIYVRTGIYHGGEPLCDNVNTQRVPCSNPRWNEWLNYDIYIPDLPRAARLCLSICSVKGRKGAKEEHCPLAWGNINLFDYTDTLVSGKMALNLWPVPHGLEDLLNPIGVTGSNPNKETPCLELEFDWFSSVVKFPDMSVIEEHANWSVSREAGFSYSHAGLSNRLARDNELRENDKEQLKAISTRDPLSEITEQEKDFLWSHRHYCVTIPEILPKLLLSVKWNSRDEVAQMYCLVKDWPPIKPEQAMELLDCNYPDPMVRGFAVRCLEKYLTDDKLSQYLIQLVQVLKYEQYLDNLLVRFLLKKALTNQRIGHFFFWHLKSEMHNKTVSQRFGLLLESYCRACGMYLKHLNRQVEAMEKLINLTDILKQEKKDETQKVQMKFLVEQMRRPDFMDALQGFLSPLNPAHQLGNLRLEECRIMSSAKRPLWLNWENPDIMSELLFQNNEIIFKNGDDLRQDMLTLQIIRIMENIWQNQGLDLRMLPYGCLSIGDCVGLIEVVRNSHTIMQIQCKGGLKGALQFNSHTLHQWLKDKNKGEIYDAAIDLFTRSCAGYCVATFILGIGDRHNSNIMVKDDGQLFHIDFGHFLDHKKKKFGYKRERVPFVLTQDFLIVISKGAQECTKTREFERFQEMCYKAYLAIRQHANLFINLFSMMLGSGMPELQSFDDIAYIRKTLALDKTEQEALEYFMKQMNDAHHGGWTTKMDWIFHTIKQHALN
Chain of PI3K-alpha (P27986 whole entry partner, species assumed): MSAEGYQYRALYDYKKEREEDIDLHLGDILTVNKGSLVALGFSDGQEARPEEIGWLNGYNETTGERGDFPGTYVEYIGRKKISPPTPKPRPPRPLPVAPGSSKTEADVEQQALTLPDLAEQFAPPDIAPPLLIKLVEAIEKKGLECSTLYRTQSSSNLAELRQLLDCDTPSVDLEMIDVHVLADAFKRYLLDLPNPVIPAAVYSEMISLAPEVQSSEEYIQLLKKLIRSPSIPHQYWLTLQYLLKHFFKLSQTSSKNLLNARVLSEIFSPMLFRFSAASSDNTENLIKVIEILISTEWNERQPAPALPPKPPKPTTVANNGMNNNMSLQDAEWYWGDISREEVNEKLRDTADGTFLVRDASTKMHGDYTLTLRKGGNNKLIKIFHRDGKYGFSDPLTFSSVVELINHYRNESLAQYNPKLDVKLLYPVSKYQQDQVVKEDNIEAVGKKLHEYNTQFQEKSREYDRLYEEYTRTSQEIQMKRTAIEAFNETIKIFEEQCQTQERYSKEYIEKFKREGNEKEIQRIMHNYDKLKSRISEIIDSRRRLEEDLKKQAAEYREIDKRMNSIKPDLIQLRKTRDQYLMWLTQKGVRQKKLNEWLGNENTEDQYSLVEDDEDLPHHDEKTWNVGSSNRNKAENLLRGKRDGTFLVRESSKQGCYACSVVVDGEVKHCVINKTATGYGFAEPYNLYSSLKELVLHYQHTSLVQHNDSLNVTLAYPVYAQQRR
Chain of mTOR (P42345 1360-2549 limits assumed): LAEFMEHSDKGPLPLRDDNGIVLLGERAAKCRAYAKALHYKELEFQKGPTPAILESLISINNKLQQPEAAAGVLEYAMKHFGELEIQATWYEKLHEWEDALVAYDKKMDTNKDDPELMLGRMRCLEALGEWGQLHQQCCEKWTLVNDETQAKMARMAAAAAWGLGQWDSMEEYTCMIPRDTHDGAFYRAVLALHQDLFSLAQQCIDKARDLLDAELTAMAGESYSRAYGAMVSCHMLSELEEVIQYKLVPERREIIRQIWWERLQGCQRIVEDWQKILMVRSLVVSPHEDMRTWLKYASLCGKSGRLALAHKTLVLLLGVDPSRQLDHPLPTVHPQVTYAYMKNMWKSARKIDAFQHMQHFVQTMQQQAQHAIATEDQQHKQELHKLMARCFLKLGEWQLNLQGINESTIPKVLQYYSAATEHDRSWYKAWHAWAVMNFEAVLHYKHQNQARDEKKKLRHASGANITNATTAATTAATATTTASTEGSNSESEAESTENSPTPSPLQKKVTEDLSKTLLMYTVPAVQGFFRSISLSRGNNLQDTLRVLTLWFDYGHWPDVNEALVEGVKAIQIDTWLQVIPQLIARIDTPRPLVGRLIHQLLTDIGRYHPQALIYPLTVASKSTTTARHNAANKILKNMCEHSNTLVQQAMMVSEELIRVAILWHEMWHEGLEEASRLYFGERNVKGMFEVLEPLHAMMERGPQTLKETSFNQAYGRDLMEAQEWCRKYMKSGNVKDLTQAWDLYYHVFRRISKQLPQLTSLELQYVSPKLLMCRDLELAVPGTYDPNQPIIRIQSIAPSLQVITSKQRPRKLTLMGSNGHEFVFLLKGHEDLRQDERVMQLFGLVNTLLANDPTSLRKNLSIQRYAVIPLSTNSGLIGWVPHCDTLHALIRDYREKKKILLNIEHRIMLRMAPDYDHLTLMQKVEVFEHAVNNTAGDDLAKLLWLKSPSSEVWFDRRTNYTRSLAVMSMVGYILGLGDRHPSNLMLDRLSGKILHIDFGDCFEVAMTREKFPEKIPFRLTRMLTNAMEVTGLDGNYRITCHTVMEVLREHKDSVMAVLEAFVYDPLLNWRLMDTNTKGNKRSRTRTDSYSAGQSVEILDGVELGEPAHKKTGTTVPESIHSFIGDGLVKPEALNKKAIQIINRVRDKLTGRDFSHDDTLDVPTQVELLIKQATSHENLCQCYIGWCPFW
Chain of PI3K-gamma (P48736 whole entry, species assumed): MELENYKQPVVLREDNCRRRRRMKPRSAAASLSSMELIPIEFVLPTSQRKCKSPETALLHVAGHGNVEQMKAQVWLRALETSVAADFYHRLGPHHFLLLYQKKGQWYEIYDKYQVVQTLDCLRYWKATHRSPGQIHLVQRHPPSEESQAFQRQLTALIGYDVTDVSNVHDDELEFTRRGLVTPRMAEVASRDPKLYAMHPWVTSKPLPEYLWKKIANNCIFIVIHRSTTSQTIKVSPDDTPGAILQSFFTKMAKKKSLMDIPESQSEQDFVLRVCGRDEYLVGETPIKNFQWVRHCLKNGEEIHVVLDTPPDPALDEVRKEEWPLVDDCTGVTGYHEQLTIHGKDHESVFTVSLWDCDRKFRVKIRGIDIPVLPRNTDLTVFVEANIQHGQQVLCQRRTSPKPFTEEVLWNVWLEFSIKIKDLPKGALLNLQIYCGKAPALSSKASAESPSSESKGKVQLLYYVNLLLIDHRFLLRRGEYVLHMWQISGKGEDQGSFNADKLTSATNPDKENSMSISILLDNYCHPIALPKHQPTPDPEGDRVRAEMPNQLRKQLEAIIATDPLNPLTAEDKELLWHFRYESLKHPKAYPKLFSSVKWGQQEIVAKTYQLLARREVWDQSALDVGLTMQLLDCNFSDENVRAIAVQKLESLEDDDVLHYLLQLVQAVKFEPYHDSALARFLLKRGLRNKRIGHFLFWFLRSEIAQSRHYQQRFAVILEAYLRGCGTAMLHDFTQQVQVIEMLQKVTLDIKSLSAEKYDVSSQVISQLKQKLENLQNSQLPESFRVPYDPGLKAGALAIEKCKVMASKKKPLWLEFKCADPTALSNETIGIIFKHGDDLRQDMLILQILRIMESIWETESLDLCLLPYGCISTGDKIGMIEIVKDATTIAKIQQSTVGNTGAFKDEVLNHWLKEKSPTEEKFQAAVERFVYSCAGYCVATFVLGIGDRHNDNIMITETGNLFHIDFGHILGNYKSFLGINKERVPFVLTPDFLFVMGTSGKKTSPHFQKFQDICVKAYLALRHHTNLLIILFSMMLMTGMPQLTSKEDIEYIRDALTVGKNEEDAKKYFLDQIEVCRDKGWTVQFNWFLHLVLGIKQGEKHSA

As a reminder, the IC50 is the point on the concentration scale where inhibition reaches its midpoint. Regarding `O=C(Nc1ccc(-c2nc(C3CCOCC3)cc(N3C4CCC3COC4)n2)cc1)Nc1cccnc1` [1-{4-[4-(3-oxa-8-azabicyclo[3.2.1]oct-8-yl)-6-(tetrahydro-2H-pyran-4-yl)pyrimidin-2-yl]phenyl}-3-pyridin-3-ylurea], the IC50 is not below 10000 nM in assay [1]; 0.32 nM in assay [2]; 2690 nM in assay [3]; 4 nM in assay [4]; 200 nM in assay [5].
On to `CN(C)CCOc1ccc(NC(=O)Nc2ccc(-c3nc(NCCS(C)(=O)=O)cc(N4C5CCC4COC5)n3)cc2)cc1` [1-{4-[2-(dimethylamino)ethoxy]phenyl}-3-{4-[4-{[2-(methylsulfonyl)ethyl]amino}-6-(3-oxa-8-azabicyclo[3.2.1]oct-8-yl)pyrimidin-2-yl]phenyl}urea], for which the IC50 in assay [1] is not below 10000 nM; in assay [2], 26 nM; in assay [3], 1860 nM; in assay [4] it was 480 nM; in assay [5] it was 420 nM.
Turning to `CCNC(=O)Nc1ccc(-c2nc(CN(C)C)cc(N3C4CCC3COC4)n2)cc1` [1-(4-{4-[(dimethylamino)methyl]-6-(3-oxa-8-azabicyclo[3.2.1]oct-8-yl)pyrimidin-2-yl}phenyl)-3-ethylurea], the IC50 in assay [1] is 12600 nM; in assay [2] it was 40 nM; in assay [3], 6240 nM; in assay [4], 1100 nM; in assay [5] it was 3000 nM.
For `CNC(=O)Nc1ccc(-c2nc(CN(C)C)cc(N3C4CCC3COC4)n2)cc1` [1-(4-{4-[(dimethylamino)methyl]-6-(3-oxa-8-azabicyclo[3.2.1]oct-8-yl)pyrimidin-2-yl}phenyl)-3-methylurea], in that order: more than 10000 nM, 77 nM, 8000 nM, 3600 nM and 7000 nM.
As to `CCN(CC)c1cc(N2C3CCC2COC3)nc(-c2ccc(NC(=O)Nc3ccncc3)cc2)n1` [1-{4-[4-(diethylamino)-6-(3-oxa-8-azabicyclo[3.2.1]oct-8-yl)pyrimidin-2-yl]phenyl}-3-pyridin-4-ylurea], the values for the IC50 in assay [1], in assay [2] and in assay [3] were 1990 nM, 4.55 nM and 2410 nM, respectively.
In the case of `O=C(Nc1ccc(-c2nc(-c3ccccc3)cc(N3CC4CCC(C3)O4)n2)cc1)NC1CC1` [1-cyclopropyl-3-{4-[4-(8-oxa-3-azabicyclo[3.2.1]oct-3-yl)-6-phenylpyrimidin-2-yl]phenyl}urea], the IC50 came out at 19.5 nM in assay [2], 3680 nM in assay [3], 1000 nM in assay [4] and 5000 nM in assay [5].
In the case of `CC(C)Oc1cc(N2CC3CCC(C2)O3)nc(-c2ccc(NC(=O)NC3CC3)cc2)n1` [1-cyclopropyl-3-{4-[4-(1-methylethoxy)-6-(8-oxa-3-azabicyclo[3.2.1]oct-3-yl)pyrimidin-2-yl]phenyl}urea], the IC50 amounted to 4.45 nM in assay [2], 7200 nM in assay [3], 290 nM in assay [4] and 1800 nM in assay [5].
As for `CNC(=O)Nc1ccc(-c2nc(CS(C)(=O)=O)cc(N3CC4CCC(C3)O4)n2)cc1` [1-methyl-3-(4-{4-[(methylsulfonyl)methyl]-6-(8-oxa-3-azabicyclo[3.2.1]oct-3-yl)pyrimidin-2-yl}phenyl)urea], the IC50 in assay [2] came out at 13.5 nM; in assay [3], 1730 nM; in assay [4], 2050 nM; in assay [5], 3300 nM.
As for `CNC(=O)Nc1ccc(-c2nc(N3CC4CCC(C3)O4)cc(C(F)(F)F)n2)cc1` [1-methyl-3-{4-[4-(8-oxa-3-azabicyclo[3.2.1]oct-3-yl)-6-(trifluoromethyl)pyrimidin-2-yl]phenyl}urea], the IC50 was found to be 11.5 nM in assay [2], 1550 nM in assay [3], 670 nM in assay [4] and 2100 nM in assay [5].
As to `CC(C)Nc1cc(N2C3CCC2COC3)nc(-c2ccc(NC(=O)Nc3ccc(CN4CCN(C)CC4)cc3)cc2)n1` [1-{4-[4-(isopropylamino)-6-(3-oxa-8-azabicyclo[3.2.1]oct-8-yl)pyrimidin-2-yl]phenyl}-3-{4-[(4-methylpiperazin-1-yl)methyl]phenyl}urea], the IC50 in assay [2] came out at 3.2 nM; in assay [3] it was 3410 nM; in assay [4], 70 nM; in assay [5], 110 nM.
In the case of `Nc1ccc(-c2nccc(N3CC4CCC(C3)O4)n2)cc1` [4-[4-(8-oxa-3-azabicyclo[3.2.1]oct-3-yl)pyrimidin-2-yl]aniline], the IC50 is 4000 nM in assay [2], 6850 nM in assay [3], 41000 nM in assay [4] and not below 60000 nM in assay [5].
As for `CN1CCN(Cc2ccc(NC(=O)Nc3ccc(-c4nc(CS(C)(=O)=O)cc(N5CC6CCC(C5)O6)n4)cc3)cc2)CC1` [1-{4-[(4-methylpiperazin-1-yl)methyl]phenyl}-3-(4-{4-[(methylsulfonyl)methyl]-6-(8-oxa-3-azabicyclo[3.2.1]oct-3-yl)pyrimidin-2-yl}phenyl)urea], the IC50 came out at 4.05 nM in assay [2], 520 nM in assay [3], 80 nM in assay [4] and 140 nM in assay [5].
Regarding `O=C(Nc1ccc(-c2nccc(N3CC4CCC(C3)O4)n2)cc1)OCCO` [2-hydroxyethyl {4-[4-(8-oxa-3-azabicyclo[3.2.1]oct-3-yl)pyrimidin-2-yl]phenyl}carbamate], the IC50 was 165 nM in assay [2], 5070 nM in assay [3], 4000 nM in assay [4] and 24000 nM in assay [5].
As to `CC(C)Nc1cc(N2C3CCC2COC3)nc(-c2ccc(NC(=O)Nc3ccc(N4CCN(C)CC4)nc3)cc2)n1` [1-{4-[4-(isopropylamino)-6-(3-oxa-8-azabicyclo[3.2.1]oct-8-yl)pyrimidin-2-yl]phenyl}-3-[6-(4-methylpiperazin-1-yl)pyridin-3-yl]urea], the IC50 was 4.2 nM in assay [2], 3870 nM in assay [3], 90 nM in assay [4] and 100 nM in assay [5].
For `CC(C)Nc1cc(N2CC3CCC(C2)O3)nc(-c2ccc(NC(=O)Nc3ccncc3)cc2)n1` [1-(4-{4-[(1-methylethyl)amino]-6-(8-oxa-3-azabicyclo[3.2.1]oct-3-yl)pyrimidin-2-yl}phenyl)-3-pyridin-4-ylurea], in that order: 0.785 nM, 140 nM, 51 nM and 310 nM.
`CCN(C(=O)Nc1ccc(N2CCN(C)CC2)cc1)c1ccc(-c2nc(N3CC4CCC(C3)O4)cc(N3CC4CCC(C3)O4)n2)cc1` [1-[4-(4,6-di-8-oxa-3-azabicyclo[3.2.1]oct-3-ylpyrimidin-2-yl)phenyl]-1-ethyl-3-[4-(4-methylpiperazin-1-yl)phenyl]urea]: the IC50 in assay [2] turned out to be 195 nM; in assay [3], 2440 nM; in assay [4], 2800 nM; in assay [5] it was 7000 nM.
Taken in the same sequence, the figures for `O=C(Nc1ccc(CO)cc1)Nc1ccc(-c2nc(-c3ccccc3)cc(N3CC4CCC(C3)O4)n2)cc1` [1-[4-(hydroxymethyl)phenyl]-3-{4-[4-(8-oxa-3-azabicyclo[3.2.1]oct-3-yl)-6-phenylpyrimidin-2-yl]phenyl}urea] were 2.9 nM, 102 nM, 56 nM and 130 nM.
`O=C(Nc1ccc(-c2cc(N3CC4CCC(C3)O4)nc(N3CC4CCC(C3)O4)n2)cc1)NC1CC1` [1-cyclopropyl-3-[4-(2,6-di-8-oxa-3-azabicyclo[3.2.1]oct-3-ylpyrimidin-4-yl)phenyl]urea]: the IC50 in assay [2] was 38.5 nM; in assay [3], 3930 nM; in assay [4], 800 nM; in assay [5] it was 6000 nM.
